This note sets out measurements from article PMC4691848 (Nature, 2012).

A short description of data set [1]: intracellular compound quantification in macrophage lysates. The format is in vitro ADME, human.
The test system of data set [2] is Flag-JMJD3-transfected HeLa cells. The data set can be described thus: nuclear H3K27me3 immunostaining. The format is cell-based.
The nature of data set [3]: ChIP analysis at the TNFA locus in LPS-stimulated macrophages. The data set is classed as cell-based, human.
Data set [4] can be described thus: TNF-α production by LPS-activated macrophages. The format is cell-based, human.
Data set [5] can be described thus: cytokine expression by PCR array in LPS-activated macrophages. The following applies: 30 μM, LPS 2 h, n = 4 donors. The format is cell-based, human.
Data set [6] concerns macrophages derived from patients with rheumatoid arthritis. The data set can be described thus: TNF-α production by macrophages derived from patients with rheumatoid arthritis. The data set is classed as cell-based, human.
Data set [7] deals with panel of demethylases of the JMJ family. The data set can be described thus: JMJ selectivity panel. The following applies: other than JMJD3 and UTX.
Data set [8] deals with panel of 60 unrelated proteins, including histone deacetylases. The data set can be described thus: off-target panel.
In a further data set the test system is 100 protein kinases. The data set can be described thus: kinase competition-binding assay. Conditions: 30 μM.
For data set [9], the target named is Flag-tagged UTX from transiently transfected HEK-293 cells (Homo sapiens, UniProt O15550). The data set can be described thus: chemoproteomics affinity capture with immobilized GSK-J3, western blotting. The format is binding. Conditions: 100 μM free compound, HEK-293 lysate. On the technique in general: Immunoblotting shows a protein as a band on a membrane.
Chain of Flag-tagged UTX from transiently transfected HEK-293 cells (O15550 whole entry): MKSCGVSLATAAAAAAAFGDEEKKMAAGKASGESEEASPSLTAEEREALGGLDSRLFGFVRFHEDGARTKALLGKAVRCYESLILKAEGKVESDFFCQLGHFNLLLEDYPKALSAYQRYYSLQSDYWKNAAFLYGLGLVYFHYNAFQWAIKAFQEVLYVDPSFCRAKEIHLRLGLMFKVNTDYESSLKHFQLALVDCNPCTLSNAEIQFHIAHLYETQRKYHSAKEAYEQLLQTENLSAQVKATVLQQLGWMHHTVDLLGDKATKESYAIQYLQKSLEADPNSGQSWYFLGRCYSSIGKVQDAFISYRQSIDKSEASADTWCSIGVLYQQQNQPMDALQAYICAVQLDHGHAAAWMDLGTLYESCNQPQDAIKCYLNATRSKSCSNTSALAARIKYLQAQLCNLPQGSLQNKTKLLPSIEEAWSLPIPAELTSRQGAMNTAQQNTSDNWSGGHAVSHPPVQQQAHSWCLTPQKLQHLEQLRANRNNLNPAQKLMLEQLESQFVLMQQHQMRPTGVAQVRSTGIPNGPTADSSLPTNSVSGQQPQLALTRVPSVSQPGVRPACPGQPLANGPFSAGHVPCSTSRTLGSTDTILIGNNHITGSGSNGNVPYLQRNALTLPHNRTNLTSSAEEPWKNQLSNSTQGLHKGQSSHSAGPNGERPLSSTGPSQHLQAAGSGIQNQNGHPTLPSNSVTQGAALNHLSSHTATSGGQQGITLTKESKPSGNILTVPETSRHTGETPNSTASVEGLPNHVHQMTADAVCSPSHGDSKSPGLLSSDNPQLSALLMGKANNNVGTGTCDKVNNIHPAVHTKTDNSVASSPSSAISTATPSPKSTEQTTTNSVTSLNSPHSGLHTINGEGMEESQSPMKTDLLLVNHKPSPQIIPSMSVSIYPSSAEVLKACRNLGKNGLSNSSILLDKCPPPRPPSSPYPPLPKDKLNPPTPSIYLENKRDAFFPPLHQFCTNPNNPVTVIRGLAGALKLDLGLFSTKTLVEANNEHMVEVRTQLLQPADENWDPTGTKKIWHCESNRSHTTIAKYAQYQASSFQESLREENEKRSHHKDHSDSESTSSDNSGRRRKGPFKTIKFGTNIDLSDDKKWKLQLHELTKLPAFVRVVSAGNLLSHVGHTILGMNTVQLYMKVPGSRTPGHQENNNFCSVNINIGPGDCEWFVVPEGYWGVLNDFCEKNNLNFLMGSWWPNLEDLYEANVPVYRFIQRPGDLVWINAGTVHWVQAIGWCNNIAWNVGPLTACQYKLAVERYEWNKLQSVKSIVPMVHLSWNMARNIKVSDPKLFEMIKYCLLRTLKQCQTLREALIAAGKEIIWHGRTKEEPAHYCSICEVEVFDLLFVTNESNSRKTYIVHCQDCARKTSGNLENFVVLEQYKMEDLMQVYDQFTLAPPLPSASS

A word on the IC50: it is the point on the concentration scale where inhibition reaches its midpoint. On to `CCOC(=O)CCNc1cc(N2CCc3ccccc3CC2)nc(-c2ccccn2)n1` [GSK-J4], for which the “hydrolysis by macrophage esterases” value in data set [1] is given as “rapidly hydrolysed”. Also, the “nuclear H3K27me3 staining in Flag-JMJD3-transfected HeLa cells” value in data set [2] (25 μM) is reported as “preserved nuclear H3K27me3 staining”. Moreover, the “total nuclear H3K27me3 levels in untransfected cells” value in data set [2] (untransfected cells) is “increased total nuclear H3K27me3 levels”. Besides, the “H3K27 methylation upstream of the TNFA TSS” value in data set [3] was “Neither GSK-J4 nor GSK-J5 had an effect”. Besides, in [3] (30 μM, LPS 1 h, n = 8 donors), the “LPS-induced loss of H3K27me3 associated with the TNFA TSS (ChIP)” value is listed as “prevented the LPS-induced loss of H3K27me3” and the “recruitment of RNA polymerase II to the TNFA TSS (ChIP)” value is “blocked the recruitment of RNA polymerase II”. The “levels of LPS-induced JMJD3 or of LPS-independent UTX and EZH2” value in data set [4] was “neither GSK-J4 nor GSK-J5 directly affected”. In data set [4] (30 μM, LPS 1 h), the “TNF-α production after siRNA knockdown of either JMJD3 or UTX alone” value was “still able to inhibit TNF-α production”. The cellular toxicity result in data set [4] (conditions of the TNF-α assay) is given as “No interference from cellular toxicity was observed”. Also, the IC50 in [4] (read-out: IC50 for TNF-α blockade, LPS, 6 h, n = 5 donors) was determined as 9 µM. Further, the “LPS-driven cytokines with significantly reduced expression (PCR array)” value in [5] was 16 of 34. In addition, the “production of TNF-α by macrophages from patients with rheumatoid arthritis” value in data set [6] is given as “blocked the production of TNF-α”.
In the case of `CCOC(=O)CCNc1cc(N2CCc3ccccc3CC2)nc(-c2cccnc2)n1` [GSK-J5], the “hydrolysis by macrophage esterases” value in [1] is “rapidly hydrolysed”. Also, the “H3K27 methylation upstream of the TNFA TSS” value in data set [3] is “Neither GSK-J4 nor GSK-J5 had an effect”. In addition, the “levels of LPS-induced JMJD3 or of LPS-independent UTX and EZH2” value in data set [4] is reported as “neither GSK-J4 nor GSK-J5 directly affected”. The “effect on TNF-α protein production” value in data set [4] (LPS, 6 h) is “no effect”.
As for `O=C(O)CCNc1cc(N2CCc3ccccc3CC2)nc(-c2ccccn2)n1` [GSK-J1], the “activity against a panel of demethylases of the JMJ family” value in data set [7] was “inactive”. Besides, in data set [1], the cellular permeability entry is “restricts cellular permeability”. Moreover, the “off-target activity against a panel of 60 unrelated proteins” value in [8] was “negligible off-target activity”. For the same compound, the “inhibition of 100 protein kinases” value in the data set on 100 protein kinases is “did not significantly inhibit”. The “competition of capture of Flag-tagged UTX by immobilized GSK-J3” value in data set [9] is recorded as “competitively inhibited”.
